For test [1], the target named is T1, BRaf (Homo sapiens, UniProt P15056).
T1 construct: purchased ProQinase GmbH, Freiburg, Germany (33PanQinase Assay Service)
As to the kind of experiment: KINOMEscan competition binding assay, BRaf. As to conditions: ratio PoC (off-target)/PoC (MKK4). How it is done: (§1) The assay was performed by combining three components: DNA-tagged kinase; immobilized ligand; and a test compound. The ability of the test compound to compete with the immobilized ligand was measured via quantitative PCR of the DNA tag. The technology is described in detail in Fabian, M. A. et al. A small molecule-kinase interaction map for clinical kinase inhibitors. Nat. […] Nat.
(§2) For investigation of the affinity to MKK4, BRaf, MKK7 and JNK1, the kinases were produced in HEK-293 cells and subsequently tagged with DNA for qPCR detection. […] The liganded beads were blocked with excess biotin and washed with blocking buffer (SEABLOCK™ (Pierce), 1% BSA, 0.05% TWEEN®20, 1 mM DTT) to remove unbound ligand and to reduce nonspecific binding. […] All reactions were performed in polystyrene 96-well plates in a final volume of 0.135 mL. […] The kinase concentration in the eluates was measured by qPCR.
(§3) The test compounds were provided as 10 mM stock solutions. The test solutions at indicated final concentrations were prepared at DiscoverX.
(§4) Potency of representative examples against the protein kinases MKK4, BRaf, MKK7 and JNK1 expressed as residual percent of control binding (PoC), was determined at a concentration of 100 nM. The determined potencies are categorized as follows:
(§5) The binding selectivity of representative examples against the protein kinases BRaf, MKK7 and JNK1, altogether denominated as “off-targets” is determined by the ratios of PoC (off-target)/PoC (MKK4).

In test [2] the target is T2, JNK1 (Homo sapiens, UniProt P45983). As to the kind of experiment: KINOMEscan competition binding assay, JNK1. Further details: M1/Q384; host or cells: HEK-293. The settings on record: ratio PoC (off-target)/PoC (MKK4). How it is done:
as §1, §2, §3, §4, §5
Target sequence in this assay (P45983 1-384 isoform P45983-2): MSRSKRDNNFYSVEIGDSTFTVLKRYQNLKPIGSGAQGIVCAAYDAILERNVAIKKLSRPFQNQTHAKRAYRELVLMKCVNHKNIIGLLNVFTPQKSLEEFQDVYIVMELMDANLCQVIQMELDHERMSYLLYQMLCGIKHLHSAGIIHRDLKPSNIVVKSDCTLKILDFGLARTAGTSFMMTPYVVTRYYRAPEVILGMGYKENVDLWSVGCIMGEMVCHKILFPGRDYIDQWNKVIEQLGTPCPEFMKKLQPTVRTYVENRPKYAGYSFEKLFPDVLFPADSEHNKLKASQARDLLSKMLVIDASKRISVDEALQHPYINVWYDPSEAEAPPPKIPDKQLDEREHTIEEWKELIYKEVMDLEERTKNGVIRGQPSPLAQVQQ

Test [3] concerns the target T3, MKK4 (Homo sapiens, UniProt P45985).
T3 construct: S84/D399; host or cells: HEK-293
T3 sequence (P45985 84-399): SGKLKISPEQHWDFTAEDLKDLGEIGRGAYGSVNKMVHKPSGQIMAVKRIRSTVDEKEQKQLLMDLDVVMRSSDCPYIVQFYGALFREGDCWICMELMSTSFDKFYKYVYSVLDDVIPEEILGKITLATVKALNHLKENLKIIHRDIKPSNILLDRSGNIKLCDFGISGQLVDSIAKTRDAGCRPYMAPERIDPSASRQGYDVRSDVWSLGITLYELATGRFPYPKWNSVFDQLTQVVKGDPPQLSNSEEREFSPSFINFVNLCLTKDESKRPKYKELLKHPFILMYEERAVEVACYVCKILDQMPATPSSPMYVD
As to the kind of experiment: KINOMEscan competition binding assay, MKK4. As to conditions: residual percent of control binding (PoC) at 100 nM. How it is done:
as §1, §2, §3
Potency of representative examples against the protein kinases MKK4, BRaf, MKK7 and JNK1 expressed as residual percent of control binding (PoC), was determined at a concentration of 100 nM. The determined potencies are categorized as follows: […]

For test [4], the target named is T4, MKK7 (Homo sapiens, UniProt O14733).
T4 sequence (O14733 1-419): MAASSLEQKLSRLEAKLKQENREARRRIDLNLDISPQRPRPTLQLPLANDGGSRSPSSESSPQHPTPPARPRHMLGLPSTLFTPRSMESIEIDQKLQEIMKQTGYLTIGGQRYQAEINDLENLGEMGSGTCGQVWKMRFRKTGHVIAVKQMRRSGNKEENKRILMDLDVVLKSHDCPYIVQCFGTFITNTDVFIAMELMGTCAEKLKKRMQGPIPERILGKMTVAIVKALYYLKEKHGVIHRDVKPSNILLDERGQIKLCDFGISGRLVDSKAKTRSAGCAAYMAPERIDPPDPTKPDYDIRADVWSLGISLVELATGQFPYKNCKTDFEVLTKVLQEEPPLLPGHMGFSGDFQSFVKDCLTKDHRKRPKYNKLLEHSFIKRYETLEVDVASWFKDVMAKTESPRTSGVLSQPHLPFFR
As to the kind of experiment: KINOMEscan competition binding assay, MKK7. Set-up: M1/R419; host or cells: HEK-293. As to conditions: ratio PoC (off-target)/PoC (MKK4). How it is done: as §1, §2, §3, §4, §5

Test [5] concerns the target T5, MKK4 (Homo sapiens, UniProt P45985).
T5 construct: purchased ProQinase GmbH, Freiburg, Germany (33PanQinase Assay Service)
T5 sequence (P45985 1-399): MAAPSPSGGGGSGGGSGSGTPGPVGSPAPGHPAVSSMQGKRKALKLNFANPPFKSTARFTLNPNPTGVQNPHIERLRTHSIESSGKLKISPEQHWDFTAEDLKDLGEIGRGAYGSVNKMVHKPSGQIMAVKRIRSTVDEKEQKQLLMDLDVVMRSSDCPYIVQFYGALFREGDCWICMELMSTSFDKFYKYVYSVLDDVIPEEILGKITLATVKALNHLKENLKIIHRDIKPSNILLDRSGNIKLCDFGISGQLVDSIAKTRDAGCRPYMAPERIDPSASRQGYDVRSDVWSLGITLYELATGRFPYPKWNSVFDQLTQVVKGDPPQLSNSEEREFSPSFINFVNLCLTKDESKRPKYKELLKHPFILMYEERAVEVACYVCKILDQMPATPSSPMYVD
As to the kind of experiment: 33PanQinase enzyme assay, MKK4. In kind it is biochemical. The settings on record: assay 'IC50'; read-out: Potency MKK4 (IC50). In outline: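 Radiometric 33PanQinase assay: kinase, substrate, ATP and compound in standard buffer, 60 min at 30 °C; 33Pi incorporation read by scintillation counting.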

The target in test [6] is T4, MKK7. The test can be described thus: 33PanQinase enzyme assay, MKK7. In kind it is biochemical. Further details: purchased ProQinase GmbH, Freiburg, Germany (33PanQinase Assay Service). As to conditions: ratio IC50(MKK7)/IC50(MKK4). In outline:
(§6)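 Radiometric 33PanQinase format: kinase with substrate, ATP and compound (added in 10% DMSO stock) incubated 60 min at 30° C, stopped with 2% H3PO4, ^33Pi incorporation counted by scintillation. Single-concentration data given as % residual activity; IC50 by least-squares fit, with selectivity as IC50(off-target)/IC50(MKK4).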

For test [7], the target named is T1, BRaf. The test can be described thus: 33PanQinase enzyme assay, BRaf. In kind it is biochemical. As to conditions: ratio IC50(BRaf)/IC50(MKK4). In outline:
as §6

Test [8] deals with T2, JNK1. The test can be described thus: 33PanQinase enzyme assay, JNK1. In kind it is biochemical. Set-up: purchased ProQinase GmbH, Freiburg, Germany (33PanQinase Assay Service). As to conditions: ratio IC50(JNK1)/IC50(MKK4). In outline:
as §6
Target sequence in this assay (P45983 whole entry): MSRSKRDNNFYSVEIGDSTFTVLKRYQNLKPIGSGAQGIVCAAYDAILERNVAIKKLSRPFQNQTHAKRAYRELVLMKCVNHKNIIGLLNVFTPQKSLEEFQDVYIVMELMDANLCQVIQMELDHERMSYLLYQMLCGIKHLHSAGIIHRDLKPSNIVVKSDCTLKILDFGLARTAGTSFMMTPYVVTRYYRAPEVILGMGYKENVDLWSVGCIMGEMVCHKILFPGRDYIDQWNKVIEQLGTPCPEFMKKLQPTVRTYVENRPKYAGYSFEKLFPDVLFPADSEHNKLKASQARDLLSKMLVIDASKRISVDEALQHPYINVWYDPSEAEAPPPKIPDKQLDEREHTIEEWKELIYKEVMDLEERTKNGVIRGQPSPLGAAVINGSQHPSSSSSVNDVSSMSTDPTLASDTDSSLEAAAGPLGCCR

The record followed here is patent US11912701B2, “Protein kinase inhibitors for promoting liver regeneration or reducing or preventing hepatocyte death” (HEPAREGENIX GMBH, priority 2018, dated 2024).

Molecules are shown by their SMILES.

T1 sequence (P15056 whole entry, species assumed): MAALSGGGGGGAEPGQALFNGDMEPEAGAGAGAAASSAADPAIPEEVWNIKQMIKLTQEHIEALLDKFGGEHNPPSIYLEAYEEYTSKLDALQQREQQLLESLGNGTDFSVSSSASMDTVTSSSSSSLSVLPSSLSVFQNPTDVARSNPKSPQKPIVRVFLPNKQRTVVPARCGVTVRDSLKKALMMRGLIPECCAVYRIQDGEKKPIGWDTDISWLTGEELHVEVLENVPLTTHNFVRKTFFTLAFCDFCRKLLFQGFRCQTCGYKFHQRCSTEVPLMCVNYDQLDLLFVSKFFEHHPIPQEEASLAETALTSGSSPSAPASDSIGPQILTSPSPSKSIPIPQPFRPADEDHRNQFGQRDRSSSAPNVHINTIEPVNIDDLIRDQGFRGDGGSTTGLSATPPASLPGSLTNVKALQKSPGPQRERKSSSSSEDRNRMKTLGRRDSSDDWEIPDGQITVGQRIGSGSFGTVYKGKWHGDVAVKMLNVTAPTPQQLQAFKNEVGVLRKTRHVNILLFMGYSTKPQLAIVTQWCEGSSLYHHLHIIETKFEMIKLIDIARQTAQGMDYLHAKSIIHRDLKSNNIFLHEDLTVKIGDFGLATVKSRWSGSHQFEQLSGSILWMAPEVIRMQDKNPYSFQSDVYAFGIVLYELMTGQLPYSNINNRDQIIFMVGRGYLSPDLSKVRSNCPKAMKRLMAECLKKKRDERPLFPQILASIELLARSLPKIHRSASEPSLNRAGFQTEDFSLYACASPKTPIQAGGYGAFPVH

On to `C#Cc1cnc2[nH]cc(C(=O)c3c(F)ccc(NS(=O)(=O)CCC)c3F)c2c1` [Example 18, N-(3-(5-ethynyl-1H-pyrrolo[2,3-b]pyridine-3-carbonyl)-2,4-difluorophenyl) propane-1-sulfonamide], for which the “selectivity based on % Ctrl @100 nM vs. Braf” value in test [1] is given as “◯ (3 ≥ Ratio)”. In addition, in test [2], the “selectivity based on % Ctrl @100 nM vs. JNK1” value is on record as “+ (10 ≥ ratio > 3)”. Moreover, in test [3], the “MKK4 [% Ctrl @ 100 nM” value is given as “+ (3 ≤ PoC < 30)”. Besides, in test [4], the “selectivity based on % Ctrl @100 nM vs. MKK7” value is reported as “+ (10 ≥ ratio > 3)”.

As to `CCCS(=O)(=O)Nc1ccc(F)c(C(=O)c2c[nH]c3ncc(-c4ccc(OCC(O)CO)cc4)cc23)c1F` (centres unmarked) [Example 31, N-(3-(5-(4-(2,3-dihydroxypropoxy)phenyl)-1H-pyrrolo[2,3-b]pyridine-3-carbonyl)-2,4-difluorophenyl)propane-1-sulfonamide], the “selectivity based on % Ctrl @100 nM vs. Braf” value in test [1] was “◯ (3 ≥ Ratio)”. Moreover, the “selectivity based on % Ctrl @100 nM vs. JNK1” value in test [2] is given as “+++ (Ratio > 100)”. Moreover, the “MKK4 [% Ctrl @ 100 nM” value in test [3] is given as “+++ (PoC < 1)”. In addition, the “selectivity based on % Ctrl @100 nM vs. MKK7” value in test [4] is given as “+++ (Ratio > 100)”.

As for `CCCS(=O)(=O)Nc1cc(Br)cc(C(=O)c2c[nH]c3ncc(-c4ccc(Cl)cc4)cc23)c1` [Example 13, N-(3-bromo-5-(5-(4-chlorophenyl)-1H-pyrrolo[2,3-b]pyridine-3-carbonyl)-phenyl)propane-1-sulfonamide], the “selectivity based on % Ctrl @100 nM vs. Braf” value in test [1] is listed as “◯ (3 ≥ Ratio)”. The “selectivity based on % Ctrl @100 nM vs. JNK1” value in test [2] is reported as “◯ (3 ≥ Ratio)”. Moreover, the “MKK4 [% Ctrl @ 100 nM” value in test [3] was “◯ (30 ≤ PoC)”. Besides, the “selectivity based on % Ctrl @100 nM vs. MKK7” value in test [4] was “◯ (3 ≥ Ratio)”.

In the case of `CCCCS(=O)(=O)Nc1ccc(F)c(C(=O)c2c[nH]c3ncc(-c4ccc(OC)cc4Cl)cc23)c1F` [Example 21, N-(3-(5-(2-chloro-4-methoxyphenyl)-1H-pyrrolo[2,3-b]pyridine-3-carbonyl)-2,4-difluorophenyl)butane-1-sulfonamide], the “selectivity based on % Ctrl @100 nM vs. Braf” value in test [1] was “++ (100 ≥ ratio > 10)”. Besides, the “selectivity based on % Ctrl @100 nM vs. JNK1” value in test [2] is given as “++ (100 ≥ ratio > 10)”. The “MKK4 [% Ctrl @ 100 nM” value in test [3] was “++ (1 ≤ PoC < 3)”. Further, the “selectivity based on % Ctrl @100 nM vs. MKK7” value in test [4] is given as “++ (100 ≥ ratio > 10)”.

Take `CCCS(=O)(=O)Nc1ccc(F)c(C(=O)c2c[nH]c3ncc(-c4ccc(OCC(O)CO)cc4Cl)cc23)c1F` (centres unmarked) [Example 30, N-(3-(5-(2-chloro-4-(2,3-dihydroxypropoxy)phenyl)-1H-pyrrolo[2,3-b]pyridine-3-carbonyl)-2,4-difluorophenyl)propane-1-sulfonamide]: the “selectivity based on % Ctrl @100 nM vs. Braf” value in test [1] is given as “++ (100 ≥ ratio > 10)”. Further, the “selectivity based on % Ctrl @100 nM vs. JNK1” value in test [2] is listed as “+++ (Ratio > 100)”. The “MKK4 [% Ctrl @ 100 nM” value in test [3] is reported as “+++ (PoC < 1)”. Also, the “selectivity based on % Ctrl @100 nM vs. MKK7” value in test [4] is on record as “+++ (Ratio > 100)”.

Consider `CCCNS(=O)(=O)c1cccc(C(=O)c2c[nH]c3ncc(Br)cc23)c1` [Example 14, 3-(5-bromo-1H-pyrrolo[2,3-b]pyridine-3-carbonyl)-N-propyl benzene sulfonamide], for which the “selectivity based on % Ctrl @100 nM vs. Braf” value in test [1] is recorded as “◯ (3 ≥ Ratio)”. Also, the “selectivity based on % Ctrl @100 nM vs. JNK1” value in test [2] is “◯ (3 ≥ Ratio)”. In test [3], the “MKK4 [% Ctrl @ 100 nM” value was “◯ (30 ≤ PoC)”. For the same compound, the “selectivity based on % Ctrl @100 nM vs. MKK7” value in test [4] is on record as “◯ (3 ≥ Ratio)”.

One may read the IC50 as the concentration that inhibits the measured activity by half. `O=C(c1cccc(NS(=O)(=O)Cc2ccccc2)c1F)c1c[nH]c2ncc(-c3cc4c(cc3Cl)OCCO4)cc12` [Example 127, N-(3-(5-(7-chloro-2,3-dihydrobenzo[b][1,4]dioxin-6-yl)-1H-pyrrolo[2,3-b]pyridine-3-carbonyl)-2-fluorophenyl)-1-phenylmethanesulfonamide]: the concentration for half-maximal inhibition (IC50) in test [5] lay in the range of 100 to 1000 nM. Besides, the “MKK4 [% Ctrl @ 100 nM” value in test [3] is recorded as “++ (1 ≤ PoC < 3)”.

Regarding `CCCS(=O)(=O)Nc1ccc(F)c(C(=O)c2c[nH]c3ncc(-c4cccc(C(F)(F)F)c4)cc23)c1F` [Example 117, N-(2,4-difluoro-3-(5-(3-(trifluoromethyl)phenyl)-1H-pyrrolo[2,3-b]pyridine-3-carbonyl)phenyl)propane-1-sulfonamide], the IC50 in test [5] lay in the range of 1000 to 10000 nM. The “Selectivity IVIKK7, IC50(off-target)/IC50(MKK4)” value (“Selectivity IVIKK7” below) in test [6] is given as “+++ (IC50(off-target)/IC50(MKK4) > 100)”. In addition, the “Selectivity Braf, IC50(off-target)/IC50(MKK4)” value (“Selectivity Braf” below) in test [7] is given as “◯ (3 ≥ IC50(off-target)/IC50(MKK4))”. In addition, the “Selectivity JNK1, IC50(off-target)/IC50(MKK4)” value (from here on “Selectivity JNK1”) in test [8] is reported as “◯ (3 ≥ IC50(off-target)/IC50(MKK4))”.

For the compound `CCCS(=O)(=O)Nc1ccc(F)c(C(=O)c2c[nH]c3ncc(N4CC(C(=O)O)C4)cc23)c1F` [Example 137, 1-(3-(2,6-difluoro-3-(propylsulfonamido)benzoyl)-1H-pyrrolo[2,3-b]pyridin-5-yl)azetidine-3-carboxylic acid], the IC50 in test [5] was 100 to 1000 nM. In addition, in test [6], the “Selectivity IVIKK7” value is on record as “+++ (IC50(off-target)/IC50(MKK4) > 100)”. Also, the “Selectivity Braf” value in test [7] was “◯ (3 ≥ IC50(off-target)/IC50(MKK4))”. Also, the “Selectivity JNK1” value in test [8] is “+ (10 ≥ IC50(off-target)/IC50(MKK4) > 3)”.

Take `CCCS(=O)(=O)Nc1ccc(F)c(C(=O)c2c[nH]c3ncc(-c4ncccn4)cc23)c1F` [Example 90, N-(2,4-difluoro-3-(5-(pyrimidin-2-yl)-1H-pyrrolo[2,3-b]pyridine-3-carbonyl)phenyl)propane-1-sulfonamide]: in test [5], the IC50 lay in the range of 1000 to 10000 nM. Further, the “Selectivity IVIKK7” value in test [6] is recorded as “++ (100 ≥ IC50(off-target)/IC50(MKK4) > 10)”. The “Selectivity Braf” value in test [7] is “◯ (3 ≥ IC50(off-target)/IC50(MKK4))”. Also, the “Selectivity JNK1” value in test [8] is on record as “◯ (3 ≥ IC50(off-target)/IC50(MKK4))”.
